Experimental data from patent US5081126A, “Quinolyl- and isoquinolyl-methoxyphenyl-dithioacetyl derivatives useful as antiinflammatory agents” (Fujisawa Pharmaceutical Co., Ltd., priority 1987, dated 1992).
Counter-ions that a name gives are not always drawn.

Test system: SRS-A (Slow Reacting Substance of Anaphylaxis) synthesis in rat polymorpholeukocyte (PMN)
Assay: Inhibiting activity of SRS-A (Slow Reacting Substance of Anaphylaxis) synthesis in rat polymorpholeukocyte (PMN) using the calcium ionophore; i-LTC4 by radioimmunoassay
Type: cell-based
Conditions: 0.25 h, 10 μM A23187, 15 min at 37° C., i-LTC4 readout
Description: Test : Inhibiting activity of SRS-A (Slow Reacting Substance of Anaphylaxis) synthesis in rat polymorpholeukocyte (PMN) of using the calcium ionophore
Preparation of PMN from rat
Male Spraque-Dawley rats weighing 250-300 g were anesthetized with ether and each was injected intraperitoneally with 20 ml of 0.1% glycogen (from Oyster). After 20 hours the rats were sacrificed and PMN were recovered in rinse of the peritoneal cavity with 10 ml Dulbeccos PBS (components in G/L : CaCl 0.1, KH2 PO4 0.2, MgCl2.6H2 O 0.1, NaCl 8.0, Na2 HPO4.7H2 O 2.16; pH 7.4). These rinses were filtered through nylon wool filter and centrifuged for 5 min at 1000 xg. The pellet was suspended in Dulbeccos PBS and centrifuged for 5 min at 1000 xg. The pellet was resuspended in Dulbeccos PBS and adjusted the cell concentration to 10^7 cells/ml with Dulbeccos PBS.
Samples were dissolved in ethanol and dispersed in Dulbeccos PBS to give a concentration of 10^-8 to 10^-3 M. Antibiotic A23187; calcium ionophor (Dehring Diagnostics; (hereinafter referred to A23187) in DMSO (10mM) was diluted with Dulbeccos PBS tc give the concentration of 1 mM. Aliquots of the cell suspension (1×10^7 cells/ml, 0.98 ml) were equilibrated for 30 min at 37° C. Solution of sample(10 ul) was added and incubated for 15 min at 37° C. before the addition of 10 μl of A23187 solution. Thus the final incubation volume of 1 ml contained approximately 1×10^7 cells, 10^-10 to […] M samples and 10 μM A23187. Incubation with A23187 were continued for 15 min at 37° C. The reactions were terminated by setting the assay tubes in ice bath to chill as rapidly as possible to 4° C. The test tubes were centrifuged at 1500 xg for 5 min at 4° C. and decanted the supernatants into the tubes and kept cold prior to assaying.
Determination of immunoreactive LTC4 (i-LTC4)
The concentration of i-LTC4 in the cell-free supernatants from the incubations were determined by specific radioimmunoassay. The mean values of i-LTC4 (these incubations were carried out in duplicate) of each sample were calculated and the effect of samples on the synthesis of the leukotrienes was presented as a percentage of the value in the absence of samples.

SMILES | IC50
CCCSC(SCCC)c1cccc(OCc2nc3ccccc3s2)c1 [Example 1, 2-[[[3-bis(propylthio)methyl]phenoxy]methyl]benzothiazole] | 300 nM
CCCSC(SCCC)c1cccc(OCc2ccccn2)c1 [Example 2, 2-[[[3-Bis(propylthio)methyl]phenoxy]methyl]pyridine hydrochloride] | 520 nM
CCCSC(SCCC)c1cccc(OCc2ccc3ccccc3n2)c1 [Example 3, 2-[[[3-bis(propylthio)methyl]phenoxy]methyl]quinoline hydrochloride] | 39 nM
CCCSC(SCCC)c1ccc(OCc2ccc3ccccc3n2)cc1 [Example 5, 2-[[[4-Bis(propylthio)methyl]phenoxy]methyl]quinoline hydrochloride] | 110 nM
CCSC(SCC)c1cccc(OCc2ccc3ccccc3n2)c1 [Example 6, 2-[[[3-Bis(ethylthio)methyl]phenoxy]methyl]quinoline hydrochloride] | 130 nM
CCCCSC(SCCCC)c1cccc(OCc2ccc3ccccc3n2)c1 [Example 7, 2-[[[3-Bis(butylthio)methyl]phenoxy]methyl]quinoline hydrochloride] | 160 nM
CCCCCSC(SCCCCC)c1cccc(OCc2ccc3ccccc3n2)c1 [Example 8, 2-[[[3-Bis(pentylthio)methyl]phenoxy]methyl]quinoline hydrochloride] | 330 nM
CC(C)SC(SC(C)C)c1cccc(OCc2ccc3ccccc3n2)c1 [Example 9, 2-[[[3-Bis(isopropylthio)methyl]phenoxy]methyl]quinoline hydrochloride] | 100 nM
c1ccc(SC(Sc2ccccc2)c2cccc(OCc3ccc4ccccc4n3)c2)cc1 [Example 10, 2-[[[3-Bis(phenylthio)methyl]phenoxy]methyl]quinoline hydrochloride] | 1100 nM
c1ccc(CSC(SCc2ccccc2)c2cccc(OCc3ccc4ccccc4n3)c2)cc1 [Example 11, 2-[[[3-Bis(benzylthio)methyl]phenoxy]methyl]quinoline] | 1400 nM
CC(C)SC(SC(C)C)c1cccc(OCc2nc3ccccc3s2)c1 [Example 16, 2-[[[3-Bis(isopropylthio)methyl]phenoxy]methyl]benzothiazole] | 110 nM
CCCSC(SCCC)c1cccc(OCc2ncc3ccccc3n2)c1 [Example 22, 2-[[[3-Bis(propylthio)methyl]phenoxy]methyl]quinazoline hydrochloride] | 850 nM
